According to BindingDB's records for doi:10.1016/j.ejmech.2014.11.047 (Dongguk University-Seoul, 2015):

Target: Hypoxia-inducible factor 1-alpha (Homo sapiens, UniProt Q16665)
Assay: Inhibition of HIF-1alpha in human Hep3B cells cotransfected with pGL3-HRE-luciferase plasmid after 24 hrs by dual-luciferase reporter assay

Hypoxia-inducible factor 1-alpha, sequence (Q16665 whole entry): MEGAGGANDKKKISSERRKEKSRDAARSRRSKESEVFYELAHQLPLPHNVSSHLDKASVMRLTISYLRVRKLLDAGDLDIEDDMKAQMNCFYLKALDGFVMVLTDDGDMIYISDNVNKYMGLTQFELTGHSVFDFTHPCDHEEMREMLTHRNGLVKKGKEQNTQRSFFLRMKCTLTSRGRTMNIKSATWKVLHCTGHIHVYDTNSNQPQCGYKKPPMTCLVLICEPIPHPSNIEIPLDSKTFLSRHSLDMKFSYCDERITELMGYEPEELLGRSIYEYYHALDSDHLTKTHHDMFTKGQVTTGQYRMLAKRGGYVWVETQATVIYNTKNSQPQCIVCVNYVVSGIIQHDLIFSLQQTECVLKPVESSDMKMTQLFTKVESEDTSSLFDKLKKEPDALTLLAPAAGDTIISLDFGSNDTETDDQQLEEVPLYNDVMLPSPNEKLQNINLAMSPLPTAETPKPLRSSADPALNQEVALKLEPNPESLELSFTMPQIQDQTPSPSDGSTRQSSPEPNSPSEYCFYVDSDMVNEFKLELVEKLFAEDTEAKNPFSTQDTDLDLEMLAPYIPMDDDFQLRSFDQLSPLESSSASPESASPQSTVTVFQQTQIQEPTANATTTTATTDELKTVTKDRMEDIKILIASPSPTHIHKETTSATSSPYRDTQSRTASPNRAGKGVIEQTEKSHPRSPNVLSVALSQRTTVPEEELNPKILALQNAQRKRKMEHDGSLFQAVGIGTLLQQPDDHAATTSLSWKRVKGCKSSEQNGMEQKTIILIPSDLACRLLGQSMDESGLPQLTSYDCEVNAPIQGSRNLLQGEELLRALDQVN

**Q.** Which IC50 does the source give for CC1(C)Oc2cc3oc(-c4cc(O)cc(O)c4)cc3cc2CC1O (stereo unspecified) [Moracin P] here?
**A.** Its IC50 is 0.65 nM.
